Measured values reported in article PMC9944328 (Nature Communications, 2023).
Values joined by “and” are separate entries in the source; they are usually repeats but may differ in a detail not shown here. Equal values may be shown once.

Molecular target: SSTR2 (Homo sapiens, UniProt P30874)
Test: NanoBiT β-arrestin 1 recruitment assay, HEK293 (SSTR2 wild-type);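 for Best-fit Bottom: percent of maximal wild-type SSTR2 response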;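 for Best-fit Top: percent of maximal wild-type SSTR2 response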;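 for Bottom (best-fit): percent of maximal wild-type response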;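 for Span (best-fit value): percent of maximal wild-type response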;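 for Span (best-fit): percent of maximal wild-type response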;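 for Top (best-fit value): percent of maximal wild-type response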;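 for Top (best-fit): percent of maximal wild-type response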
Type: cell-based
Parameters: Human full-length SSTR wild-type and mutant vectors were C-terminally fused; expressed in transfected cells; host or cells: HEK293; Best-fit values Bottom / Best-fit values Top / Best-fit values Span / Best-fit Bottom / Best-fit Top / Best-fit Span: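 percent of maximal wild-type SSTR2 response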
Settings: for β-arrestin recruitment: compared with octreotide, Fig. 1c
Description: The NanoBiT β-arrestin 1 recruitment assays were carried out according to the method described previously. […] Human full-length SSTR wild-type and mutant vectors were C-terminally fused with a 15-amino acid flexible linker and the small fragment (SmBiT). HEK293 cells were seeded into six-well microplates at a density of 1.0 × 10^6 cells/well and cultured for 24 h at 37 °C with 5% CO2. After that, cells were co-transfected with pcDNA3.1+ vectors encoding SSTR wild-type or mutants and human β-arrestin 1. After transfecting for 24 h, the transfected cells were suspended and seeded into white 96-well plates, and then cultured at 37 °C overnight. After that the medium in each well was exchanged for 90 μl of 0.01% bovine serum albumin containing 20 μl of 50 μM coelenterazine h (Carbosynth) diluted in the HBSS assay buffer and incubated for 40 min at room temperature. Then, ligands diluted in the assay buffer was added to each well and the luminescence intensity was measured using the Synergy H1 microplate reader and detected at room temperature in a time period. All data presented are means of at least three independent experiments.

[1] = SSTR2-WT control of I284A-1, T194A-1, I195A-3, L99A-3, Q102A-1
[2] = SSTR2-WT control of I284A-2/-3, T194A-2/-3, L99A-1/-2, Q102A-3

SSTR2, sequence (P30874 whole entry): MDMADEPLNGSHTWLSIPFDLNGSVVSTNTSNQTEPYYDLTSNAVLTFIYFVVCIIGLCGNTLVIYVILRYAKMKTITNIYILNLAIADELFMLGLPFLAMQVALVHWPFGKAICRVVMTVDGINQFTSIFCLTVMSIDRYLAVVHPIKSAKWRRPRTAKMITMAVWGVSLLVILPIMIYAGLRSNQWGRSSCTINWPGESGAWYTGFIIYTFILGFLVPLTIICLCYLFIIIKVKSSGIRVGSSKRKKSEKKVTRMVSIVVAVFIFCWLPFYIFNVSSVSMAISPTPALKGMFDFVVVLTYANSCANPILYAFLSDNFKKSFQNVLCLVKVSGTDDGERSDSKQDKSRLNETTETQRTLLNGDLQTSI
SSTR2, sequence (P49407 whole entry partner): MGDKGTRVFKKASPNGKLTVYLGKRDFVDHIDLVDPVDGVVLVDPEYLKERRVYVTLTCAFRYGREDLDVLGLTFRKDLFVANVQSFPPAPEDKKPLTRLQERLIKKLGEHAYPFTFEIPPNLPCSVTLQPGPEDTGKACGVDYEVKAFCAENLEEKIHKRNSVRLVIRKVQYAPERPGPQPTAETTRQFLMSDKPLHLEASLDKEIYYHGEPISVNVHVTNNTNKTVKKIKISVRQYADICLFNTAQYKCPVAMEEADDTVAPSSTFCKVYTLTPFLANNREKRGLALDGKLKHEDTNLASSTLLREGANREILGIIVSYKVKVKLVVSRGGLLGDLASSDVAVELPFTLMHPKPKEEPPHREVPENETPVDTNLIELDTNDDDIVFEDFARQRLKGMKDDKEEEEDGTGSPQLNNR

## N#Cc1cccc(-c2ccc3ncc(-c4cc(F)cc(F)c4)c(N4CCC(N)CC4)c3c2)c1O [paltusotine]
Best-fit EC50, SSTR2-WT control of I284A-1, T194A-1, I195A-3, L99A-3
  EC50: 420 nM
Best-fit EC50, SSTR2-WT control of I284A-2/-3, T194A-2/-3, L99A-1/-2
  EC50: 455 nM
Best-fit EC50, SSTR2-WT-1 control of I195A-1
  EC50: 306 nM
Best-fit EC50, SSTR2-WT-1 control of Y50A-1
  EC50: 216 nM
Best-fit EC50, SSTR2-WT-2 control of I195A-2
  EC50: 295 nM
Best-fit EC50, SSTR2-WT-2 control of Y50A-2
  EC50: 272 nM
Best-fit EC50, SSTR2-WT-3 control of Y50A-3
  EC50: 306 nM
EC50 (best-fit value), SSTR2-WT, run WT-1
  EC50: 455 nM and 420 nM and 141 nM and 1270 nM and 292 nM
EC50 (best-fit value), SSTR2-WT, run WT-2
  EC50: 455 nM and 399 nM and 131 nM and 141 nM and 613 nM
EC50 (best-fit value), SSTR2-WT, run WT-3
  EC50: 726 nM and 216 nM and 292 nM and 131 nM and 538 nM and 455 nM
EC50 (best-fit), WT-1 (D122A set)
  EC50: 420 nM
EC50 (best-fit), WT-1 (F127A set)
  EC50: 307 nM
EC50 (best-fit), WT-1 (I130A set)
  EC50: 292 nM
EC50 (best-fit), WT-1 (Q102A set)
  EC50: 420 nM
EC50 (best-fit), WT-1 (Q126A set)
  EC50: 306 nM
EC50 (best-fit), WT-1 (V103A set)
  EC50: 306 nM
EC50 (best-fit), WT-2 (D122A set)
  EC50: 399 nM
EC50 (best-fit), WT-2 (F127A set)
  EC50: 272 nM
EC50 (best-fit), WT-2 (I130A set)
  EC50: 141 nM
EC50 (best-fit), WT-2 (Q102A set)
  EC50: 339 nM
EC50 (best-fit), WT-2 (Q126A set)
  EC50: 455 nM
EC50 (best-fit), WT-2 (V103A set)
  EC50: 295 nM
EC50 (best-fit), WT-3 (D122A set)
  EC50: 455 nM
EC50 (best-fit), WT-3 (F127A set)
  EC50: 292 nM
EC50 (best-fit), WT-3 (Q102A set)
  EC50: 455 nM
EC50 (best-fit), WT-3 (Q126A set)
  EC50: 455 nM
EC50 (best-fit), WT-3 (V103A set)
  EC50: 306 nM
EC50 (β-arrestin1 recruitment), best-fit, WT-1 (SSTR2-WT set up beside each mutant)
  EC50: 420 nM and 455 nM and 529 nM
EC50 (β-arrestin1 recruitment), best-fit, WT-2 (SSTR2-WT set up beside each mutant)
  EC50: 455 nM and 420 nM and 613 nM
EC50 (β-arrestin1 recruitment), best-fit, WT-3 (SSTR2-WT set up beside each mutant)
  EC50: 420 nM and 538 nM
EC50, β-arrestin recruitment, SSTR2 WT, n=6
  EC50: 406 ± 5.62 nM
HEK293
  Emax: 100%
SSTR2-WT control of I284A-1, T194A-1, I195A-3, L99A-3
  Best-fit Span: 106.9
[1]
  Best-fit Bottom: 1.007
  Best-fit LogEC50: -6.376
  Best-fit Top: 107.9
SSTR2-WT control of I284A-2/-3, T194A-2/-3, L99A-1/-2
  Best-fit Span: 106.4
[2]
  Best-fit Bottom: 0.9805
  Best-fit LogEC50: -6.342
  Best-fit Top: 107.4
SSTR2-WT-1 control of I195A-1
  Best-fit Bottom: 0.5008
  Best-fit LogEC50: -6.514
  Best-fit Span: 104.2
  Best-fit Top: 104.7
SSTR2-WT-1 control of Y50A-1
  Best-fit Bottom: -1.342
  Best-fit LogEC50: -6.666
  Best-fit Span: 105.2
  Best-fit Top: 103.8
SSTR2-WT-2 control of I195A-2
  Best-fit Bottom: 0.4349
  Best-fit LogEC50: -6.531
  Best-fit Span: 102.7
  Best-fit Top: 103.1
SSTR2-WT-2 control of Q102A-2
  Best-fit Bottom: -0.0463
  Best-fit LogEC50: -6.469
SSTR2-WT-2 control of Y50A-2
  Best-fit Bottom: -1.812
  Best-fit LogEC50: -6.566
  Best-fit Span: 107.5
  Best-fit Top: 105.7
SSTR2-WT-3 control of Y50A-3
  Best-fit Bottom: -2.538
  Best-fit LogEC50: -6.515
  Best-fit Span: 108.6
  Best-fit Top: 106.1
SSTR2-WT, run WT-1
  Span (best-fit value): 106.4 and 106.9 and 102.6 and 115.9 and 106
  Top (best-fit value): 107.4 and 107.9 and 101.5 and 113.5 and 105.5
SSTR2-WT, run WT-2
  Span (best-fit value): 106.4 and 103.6 and 103.9 and 102.6 and 106.8
  Top (best-fit value): 107.4 and 106.9 and 102.6 and 101.5 and 107.6
SSTR2-WT, run WT-3
  Span (best-fit value): 112.3 and 105.2 and 106 and 103.9 and 104.9 and 106.4
  Top (best-fit value): 109 and 103.8 and 105.5 and 102.6 and 107.1 and 107.4
SSTR2 WT
  β-arrestin recruitment: lower efficacy of β-arrestin recruitment
SSTR2 WT, listed as Paltusotine
  β-arrestin recruitment: lower β-arrestin recruitment compared with octreotide
WT-1 (D122A set)
  Bottom (best-fit): 1.007
  LogEC50 (best-fit): -6.376
  Span (best-fit): 106.9
  Top (best-fit): 107.9
WT-1 (F127A set)
  Bottom (best-fit): -9.341
  LogEC50 (best-fit): -6.513
  Span (best-fit): 113.7
  Top (best-fit): 104.3
WT-1 (I130A set)
  Bottom (best-fit): -0.4941
  LogEC50 (best-fit): -6.535
  Span (best-fit): 106
  Top (best-fit): 105.5
WT-1 (Q102A set)
  Span (best-fit): 106.9
WT-1 (Q126A set)
  Bottom (best-fit): 0.5008
  LogEC50 (best-fit): -6.514
  Span (best-fit): 104.2
  Top (best-fit): 104.7
WT-1 (V103A set)
  Bottom (best-fit): 0.5008
  LogEC50 (best-fit): -6.514
  Span (best-fit): 104.2
  Top (best-fit): 104.7
WT-2 (D122A set)
  Bottom (best-fit): 3.261
  LogEC50 (best-fit): -6.399
  Span (best-fit): 103.6
  Top (best-fit): 106.9
WT-2 (F127A set)
  Bottom (best-fit): -1.812
  LogEC50 (best-fit): -6.566
  Span (best-fit): 107.5
  Top (best-fit): 105.7
WT-2 (I130A set)
  Bottom (best-fit): -1.026
  LogEC50 (best-fit): -6.849
  Span (best-fit): 102.6
  Top (best-fit): 101.5
WT-2 (Q126A set)
  Bottom (best-fit): 0.9805
  LogEC50 (best-fit): -6.342
  Span (best-fit): 106.4
  Top (best-fit): 107.4
WT-2 (V103A set)
  Bottom (best-fit): 0.4349
  LogEC50 (best-fit): -6.531
  Span (best-fit): 102.7
  Top (best-fit): 103.1
WT-3 (D122A set)
  Bottom (best-fit): 0.9805
  LogEC50 (best-fit): -6.342
  Span (best-fit): 106.4
  Top (best-fit): 107.4
WT-3 (F127A set)
  Bottom (best-fit): -0.4941
  LogEC50 (best-fit): -6.535
  Span (best-fit): 106
  Top (best-fit): 105.5
WT-3 (I130A set)
  Bottom (best-fit): -1.282
  LogEC50 (best-fit): -6.883
  Span (best-fit): 103.9
  Top (best-fit): 102.6
WT-3 (Q102A set)
  Span (best-fit): 106.4
WT-3 (Q126A set)
  Bottom (best-fit): 0.9805
  LogEC50 (best-fit): -6.342
  Span (best-fit): 106.4
  Top (best-fit): 107.4
WT-3 (V103A set)
  Bottom (best-fit): 0.5008
  LogEC50 (best-fit): -6.514
  Span (best-fit): 104.2
  Top (best-fit): 104.7
best-fit, WT-1
  Bottom (β-arrestin1 recruitment): 1.007 and 0.9805 and 0.9636
  LogEC50 (β-arrestin1 recruitment): -6.376 and -6.342 and -6.276
  Span (β-arrestin1 recruitment): 106.9 and 106.4 and 106.5
  Top (β-arrestin1 recruitment): 107.9 and 107.4 and 107.5
best-fit, WT-2
  Bottom (β-arrestin1 recruitment): 0.9805 and 1.007 and 0.8106
  LogEC50 (β-arrestin1 recruitment): -6.342 and -6.376 and -6.212
  Span (β-arrestin1 recruitment): 106.4 and 106.9 and 106.8
  Top (β-arrestin1 recruitment): 107.4 and 107.9 and 107.6
best-fit, WT-3
  LogEC50 (β-arrestin1 recruitment): -6.342 and -6.376 and -6.269
  Span (β-arrestin1 recruitment): 106.4 and 106.9 and 104.9
  Top (β-arrestin1 recruitment): 107.4 and 107.9 and 107.1
β-arrestin recruitment EC50, SSTR2 WT
  Fold of WT: 1
